Experimental data taken from patent publication US10392422B2, “Macrocyclic broad spectrum antibiotics” (priority 2014, dated 2019).
≈ marks a conversion by molar mass, not a printed value. Where two headings read alike, the source gives them in different places.

Tests used:
Experiment in all cases: MIC, broth micro-dilution technique (CLSI)
[1] = test system: Escherichia coli MC4100 harboring the IMP4213; assay type: cell-based; conditions: 35° C., 22 hours; for MIC: Escherichia coli, 22 h
Procedure, shortened: (§1)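 Cation-adjusted MHB + 0.002% Tween-80; 10-point 2-fold series starting 64 μg/ml (modified protocol: 4 μg/mL). Final inoculum OD600 0.0005; 35° C, 22 h. MIC per CLSI M07-A8 broth microdilution.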

[2] = test system: Methicillin Resistant Staphylococcus aureus strain USA 300 (NRS384); assay type: cell-based; conditions: for MIC: Staphylococcus aureus, 22 h, read-out: MIC (μg/mL) S. aureus
Procedure, shortened: as §1

MRSA COL (NRS100) = assay type: cell-based, Staphylococcus aureus; conditions: for MIC: Staphylococcus aureus, 22 h, read-out: MIC (μg/mL) (COL)
Procedure, shortened: as §1

[3] = Table 2 modified protocol: serial 2-fold dilutions starting from 4 μg/mL
[4] = Table 2 modified protocol: serial 2-fold dilutions starting from 4 μg/mL, 35° C., 22 hours
[5] = Table 1 protocol: serial 2-fold dilutions starting from 64 μg/ml, 35° C., 22 hours
[6] = read-out: MIC (μg/mL) E. coli, Table 2 modified protocol: serial 2-fold dilutions starting from 4 μg/mL
[7] = read-out: MIC (μg/mL) E. coli, Table 1 protocol: serial 2-fold dilutions starting from 64 μg/ml

In the case of `CCCCCCCCCC(=O)NCC(=O)N(C)[C@@H]1C(=O)N[C@@H](C)C(=O)N[C@H](C(=O)N[C@@H](C)C(C)=O)Cc2ccc(OCCN)c(c2)-c2cc1ccc2OCCN.O=CO` [Compound 267], the “MIC (μg/mL) E. coli” value [1, 3] was over 4 µg/mL, the “MIC (μg/mL) S. aureus” value [2, 4] was 1.5 µg/mL and the “MIC (μg/mL) (COL)” value (MRSA COL (NRS100); [4]) was 0.5 µg/mL.
`CCCCCCCCCCNCCC(=O)N(C)[C@@H]1C(=O)N[C@@H](C)C(=O)N[C@H](C(=O)N[C@@H](C)C(C)=O)Cc2ccc(OCCN)c(c2)-c2cc1ccc2OCCN.O=CO` [Compound 268] was tested, and the “MIC (μg/mL) E. coli” value [1, 3] was 2.5 µg/mL, the “MIC (μg/mL) S. aureus” value [2, 4] was 2.1 µg/mL and the “MIC (μg/mL) (COL)” value (MRSA COL (NRS100); [4]) was 1 µg/mL.
For `CCCCCCCCCCNCC(=O)N(C)[C@@H]1C(=O)N[C@@H](C)C(=O)N[C@H](C(=O)N[C@@H](C)C(C)=O)Cc2ccc(OCCN)c(c2)-c2cc1ccc2OCCN.O=CO` [Compound 269], the “MIC (μg/mL) E. coli” value [1, 3] was over 4 µg/mL, the “MIC (μg/mL) S. aureus” value [2, 4] was 0.38 µg/mL and the “MIC (μg/mL) (COL)” value (MRSA COL (NRS100); [4]) was 0.13 µg/mL.
With `CCCCCCCCCCNCCC(=O)N[C@@H](CCCCN)C(=O)N(C)[C@@H]1C(=O)N[C@@H](C)C(=O)N[C@H](C(=O)N[C@@H](C)C(C)=O)Cc2ccc(OCCN)c(c2)-c2cc1ccc2OCCN.O=CO` [Compound 270] the “MIC (μg/mL) E. coli” value ([1]; Table 1 protocol: serial 2-fold dilutions starting from 64 μg/ml) was 8 µg/mL, the “MIC (μg/mL) S. aureus” value [2, 5] was 0.25 µg/mL and the “MIC (μg/mL) (COL)” value (MRSA COL (NRS100); [5]) was 0.063 µg/mL.
With `CCCCCCCCCCNCCC(=O)N[C@@H](CCCCN)C(=O)N(C)[C@@H]1C(=O)N[C@@H](C)C(=O)N[C@H](C(=O)N[C@@H](C)C(=O)c2nnn[nH]2)Cc2ccc(OCCN)c(c2)-c2cc1ccc2OCCN.O=CO` [Compound 271] the “MIC (μg/mL) E. coli” value [1, 3] was 4 µg/mL, the “MIC (μg/mL) S. aureus” value [2, 4] was 0.047 µg/mL and the “MIC (μg/mL) (COL)” value (MRSA COL (NRS100); [4]) was 0.016 µg/mL.
`CCCCc1ccc(-c2ccc(C(=O)N[C@@H](CCCCN)C(=O)N(C)[C@@H]3C(=O)N[C@@H](C)C(=O)N[C@H](C(=O)N[C@@H](C)C(C)=O)Cc4ccc(OCCN)c(c4)-c4cc3ccc4OCCN)cc2)cc1` [Compound 272] gave an MIC [1, 6] of 0.25 µg/mL (≈ 0.268 µM), an MIC [2, 4] of 0.13 µg/mL (≈ 0.139 µM) and an MIC (MRSA COL (NRS100); [4]) of 0.063 µg/mL (≈ 0.0675 µM).
For `C[C@@H]1NC(=O)[C@@H](N(C)C(=O)[C@H](CCCCN)NC(=O)c2ccc(-c3ccc(Cl)cc3)cc2)c2ccc(OCCN)c(c2)-c2cc(ccc2OCCN)C[C@@H](C(=O)N[C@@H](C)C(=O)c2[nH]ncc2[N+](=O)[O-])NC1=O` [Compound 273], the “MIC (μg/mL) E. coli” value [1, 3] was 4 µg/mL (≈ 3.97 µM), the “MIC (μg/mL) S. aureus” value [2, 4] was 0.75 µg/mL (≈ 0.744 µM) and the “MIC (μg/mL) (COL)” value (MRSA COL (NRS100); [4]) was 0.38 µg/mL (≈ 0.377 µM).
In the case of `C[C@@H]1NC(=O)[C@@H](N(C)C(=O)[C@H](CCCCN)NC(=O)c2ccc(-c3ccc(Cl)cc3)cc2)c2ccc(OCCN)c(c2)-c2cc(ccc2OCCN)C[C@@H](C(=O)N[C@@H](C)C(=O)c2[nH]ncc2N)NC1=O` [Compound 274], the MIC [1, 6] was 4 µg/mL (≈ 4.09 µM), the MIC [2, 4] was over 4 µg/mL and the MIC (MRSA COL (NRS100); [4]) was 1.5 µg/mL (≈ 1.53 µM).
With `C[C@@H]1NC(=O)[C@@H](N(C)C(=O)[C@H](CCCCN)NC(=O)c2ccc(-c3ccc(Cl)cc3)cc2)c2ccc(OCCN)c(c2)-c2cc(ccc2OCCN)C[C@@H](C(=O)N[C@@H](C)C(=O)c2nc(Cl)n[nH]2)NC1=O` [Compound 275] the MIC [1, 6] was 2 µg/mL (≈ 2 µM), the MIC [2, 4] was 1 µg/mL (≈ 1 µM) and the MIC (MRSA COL (NRS100); [4]) was 0.13 µg/mL (≈ 0.13 µM).
`C[C@@H]1NC(=O)[C@@H](N(C)C(=O)[C@H](CCCCN)NC(=O)c2ccc(-c3ccc(Cl)cc3)cc2)c2ccc(OCCN)c(c2)-c2cc(ccc2OCCN)C[C@@H](C(=O)N[C@@H](C)C(=O)c2c([N+](=O)[O-])cnn2C)NC1=O` [Compound 276] was tested, and the “MIC (μg/mL) E. coli” value [1, 3] was 4 µg/mL (≈ 3.91 µM), the “MIC (μg/mL) S. aureus” value [2, 4] was 4 µg/mL (≈ 3.91 µM) and the “MIC (μg/mL) (COL)” value (MRSA COL (NRS100); [4]) was 1.5 µg/mL (≈ 1.47 µM).
`C[C@@H]1NC(=O)[C@@H](N(C)C(=O)[C@H](CCCCN)NC(=O)c2ccc(-c3ccc(Cl)cc3)cc2)c2ccc(OCCN)c(c2)-c2cc(ccc2OCCN)C[C@@H](C(=O)N[C@@H](C)C(=O)N2CCC[C@H]2C(N)=O)NC1=O` [Compound 277] showed an MIC [1, 7] of 2 µg/mL (≈ 1.98 µM), an MIC [2, 5] of 0.75 µg/mL (≈ 0.743 µM) and an MIC (MRSA COL (NRS100); [5]) of 0.25 µg/mL (≈ 0.248 µM).
With `C[C@@H]1NC(=O)[C@@H](N(C)C(=O)[C@H](CCCCN)NC(=O)c2ccc(-c3ccc(C(C)(C)C)cc3)cc2)c2ccc(OCCN)c(c2)-c2cc(ccc2OCCN)C[C@@H](C(=O)O)NC1=O` [Compound 278] the MIC [1, 6] was 0.031 µg/mL (≈ 0.0359 µM), the MIC [2] was 0.25 µg/mL (≈ 0.289 µM) and the MIC (MRSA COL (NRS100)) was 0.094 µg/mL (≈ 0.109 µM).
For `C[C@@H]1NC(=O)[C@@H](N(C)C(=O)[C@H](CCCCN)NC(=O)c2ccc(-c3ccc(C(F)(F)F)cc3)cc2)c2ccc(OCCN)c(c2)-c2cc(ccc2OCCN)C[C@@H](C(=O)O)NC1=O` [Compound 279], the MIC [1, 6] was 0.25 µg/mL (≈ 0.285 µM), the MIC [2] was 2 µg/mL (≈ 2.28 µM) and the MIC (MRSA COL (NRS100)) was 0.5 µg/mL (≈ 0.571 µM).
Molecule `C[C@@H]1NC(=O)[C@@H](N(C)C(=O)[C@H](CCCCN)NC(=O)c2ccc(-c3cc(Cl)cc(Cl)c3)cc2)c2ccc(OCCN)c(c2)-c2cc(ccc2OCCN)C[C@@H](C(=O)O)NC1=O` [Compound 280] has an MIC [1, 6] of 0.25 µg/mL (≈ 0.285 µM), an MIC [2] of 0.75 µg/mL (≈ 0.855 µM) and an MIC (MRSA COL (NRS100)) of 0.38 µg/mL (≈ 0.433 µM).
`C[C@@H]1NC(=O)[C@@H](N(C)C(=O)[C@H](CCCCN)NC(=O)c2ccc(/C=C/c3ccccc3)cc2)c2ccc(OCCN)c(c2)-c2cc(ccc2OCCN)C[C@@H](C(=O)O)NC1=O` [Compound 281] was tested, and the MIC [1, 6] was 0.25 µg/mL (≈ 0.3 µM), the MIC [2] was 3 µg/mL (≈ 3.6 µM) and the MIC (MRSA COL (NRS100)) was 1 µg/mL (≈ 1.2 µM).
With `C[C@@H]1NC(=O)[C@@H](N(C)C(=O)[C@H](CCCCN)NC(=O)c2cccc(-c3ccc(Cl)cc3)c2)c2ccc(OCCN)c(c2)-c2cc(ccc2OCCN)C[C@@H](C(=O)O)NC1=O` [Compound 282] the MIC [1, 6] was 1 µg/mL (≈ 1.19 µM), the MIC [2] was over 4 µg/mL and the MIC (MRSA COL (NRS100)) was 2 µg/mL (≈ 2.37 µM).
`C[C@@H]1NC(=O)[C@@H](N(C)C(=O)[C@H](CCCCN)NC(=O)c2ccc(-c3ccccc3Cl)cc2)c2ccc(OCCN)c(c2)-c2cc(ccc2OCCN)C[C@@H](C(=O)O)NC1=O` [Compound 283] was tested, and the MIC [1, 6] was 1 µg/mL (≈ 1.19 µM), the MIC [2] was 4 µg/mL (≈ 4.75 µM) and the MIC (MRSA COL (NRS100)) was 1.5 µg/mL (≈ 1.78 µM).
`C[C@@H]1NC(=O)[C@@H](N(C)C(=O)[C@H](CCCCN)NC(=O)c2ccccc2-c2ccc(Cl)cc2)c2ccc(OCCN)c(c2)-c2cc(ccc2OCCN)C[C@@H](C(=O)O)NC1=O` [Compound 284] gave an MIC [1, 6] of over 4 µg/mL, an MIC [2] of over 4 µg/mL and an MIC (MRSA COL (NRS100)) of over 4 µg/mL.
With `C[C@@H]1NC(=O)[C@@H](N(C)C(=O)[C@H](CCCCN)NC(=O)c2ccc(Oc3ccc(Cl)cc3)cc2)c2ccc(OCCN)c(c2)-c2cc(ccc2OCCN)C[C@@H](C(=O)O)NC1=O` [Compound 285] the MIC [1, 6] was 0.25 µg/mL (≈ 0.291 µM), the MIC [2] was 2 µg/mL (≈ 2.33 µM) and the MIC (MRSA COL (NRS100)) was 0.5 µg/mL (≈ 0.582 µM).
With `C[C@@H]1NC(=O)[C@@H](N(C)C(=O)[C@H](CCCCN)NC(=O)Cc2ccc(-c3ccc(Cl)cc3)cc2)c2ccc(OCCN)c(c2)-c2cc(ccc2OCCN)C[C@@H](C(=O)O)NC1=O` [Compound 286] the MIC [1, 6] was 4 µg/mL (≈ 4.67 µM), the MIC [2] was 4 µg/mL (≈ 4.67 µM) and the MIC (MRSA COL (NRS100)) was 1.5 µg/mL (≈ 1.75 µM).
`C[C@@H]1NC(=O)[C@@H](N(C)C(=O)[C@H](CCCCN)NC(=O)c2ccc(-c3ccc(-c4ccccc4)cc3)cc2)c2ccc(OCCN)c(c2)-c2cc(ccc2OCCN)C[C@@H](C(=O)O)NC1=O` [Compound 287] gave an MIC [1, 6] of 0.047 µg/mL (≈ 0.0532 µM), an MIC [2] of 0.25 µg/mL (≈ 0.283 µM) and an MIC (MRSA COL (NRS100)) of 0.094 µg/mL (≈ 0.106 µM).
Work on `CCCCc1ccc(-c2cccc(C(=O)N[C@@H](CCCCN)C(=O)N(C)[C@@H]3C(=O)N[C@@H](C)C(=O)N[C@H](C(=O)O)Cc4ccc(OCCN)c(c4)-c4cc3ccc4OCCN)c2)cc1` [Compound 288] yielded an MIC [1, 6] of 0.13 µg/mL (≈ 0.15 µM), an MIC [2] of 0.5 µg/mL (≈ 0.579 µM) and an MIC (MRSA COL (NRS100)) of 0.25 µg/mL (≈ 0.289 µM).
For `C[C@@H]1NC(=O)[C@@H](N(C)C(=O)[C@H](CCCCN)NC(=O)c2ccc(-c3ccc(Cl)cc3)cc2)c2ccc(OCCN)c(c2)-c2cc(ccc2OCCN)C[C@@H](C(=O)O)NC1=O` [Compound 289], the MIC [1, 7] was 0.5 µg/mL (≈ 0.594 µM), the MIC [2] was 2 µg/mL (≈ 2.37 µM) and the MIC (MRSA COL (NRS100)) was 0.5 µg/mL (≈ 0.594 µM).
Work on `C[C@@H]1NC(=O)[C@@H](N(C)C(=O)[C@H](CCCCN)NC(=O)c2ccc(-c3ccc(Cl)cc3)cc2)c2cc(C#N)c(O)c(c2)-c2cc(ccc2O)C[C@@H](C(=O)O)NC1=O` [Compound 290] yielded an MIC [1, 7] of 32 µg/mL (≈ 41 µM), an MIC [2] of 64 µg/mL (≈ 81.9 µM) and an MIC (MRSA COL (NRS100)) of 32 µg/mL (≈ 41 µM).
